What all share (type): cell-based, Chinese hamster
For one assay, the system named is CHO cells. Description: Fed-batch 5-L bioreactor CHO culture: sialic acid content and N-linked sialylated species fraction. The conditions noted are these: 1 μM DEX bolus addition. As for the experimental part:
Bioreactor experiments were performed in 5-L bioreactors (Sartorius AG, Goettingen, Germany) with initial working volumes of 1.5 L. Agitation, pH, and dissolved oxygen were controlled at 150 rpm, 7.05, and 50% air saturation, respectively. Temperature was initially controlled at 37° C., but was shifted to a lower temperature during the culture to extend culture viability. The bioreactors were operated in fed-batch mode and were fed daily starting on day 3 with the proprietary feed medium to maintain adequate concentrations for glucose and other nutrients. Samples were taken during the cell culture process and analyzed for cell density, cell viability, substrates and metabolites.
The sialic acid to recombinant protein molar ratio was calculated by determining the sialic acid and recombinant protein concentrations. Sialic acid (SA), including N-Acetylneuraminic (Neu5Ac) and N-glycolylneuraminic acid (Neu5Gc), was released by partial acid hydrolysis. The derivatives were then separated by reversed-phase HPLC to determine sialic acid content. The protein concentrations were determined by UV absorbance at 280 nm. Sialic acid content is reported as molar ratios, which is the total moles of Neu5Ac and Neu5Gc per mole of recombinant glycoprotein. Sialic acid contents are reported as normalized values, which are the actual values divided by an arbitrary value. The same divisor was used to normalize all sialic acid content data in the studies reported here.
High-pH anion-exchange chromatography with pulsed amperometric detection (HPAEC-PAD) was used for the profiling of N-linked oligosaccharides (Base and Spellman 1990; Townsend and Hardy 1991) to provide information on site-specific N-linked glycosylation. N-linked oligosaccharides were cleaved from protein and separated on HPAEC-PAD into four domains based on the amount of sialic acid present. Domain I represents the asialo species. Domains II, III, and IV are sialylated species and represent monosialylated, disialylated, and tri- and tetrasialylated species, respectively. N-linked sialylated species fraction is reported as the percentage of N-linked sialylated species within the total N-linked oligosaccharides species, which includes both asialo and sialylated species. N-linked sialylated species fractions are reported as normalized values, which are the actual values divided by an arbitrary value. The same divisor was used to normalize all N-linked sialylated species fraction data in the studies reported here.
The bioreactors were operated as described in the methods section.

The test system of assay [1] is GILZ (glucocorticoid-induced leucine zipper). Description: qRT-PCR of GILZ gene expression in CHO cells. The conditions noted are these: 1 μM DEX added day 2. As to the method: Purified RNA was treated with RNasefree DNaseI (Qiagen) and then used as a template to synthesize the first-strand cDNA using RT^2 First Strand Kit (SA Biosciences, Frederick, Md.). Expression of GILZ was quantitatively determined using GILZ specific TaqMan MGB probe (6-FAM-[…]) and primers (Forward: 5-[…]-3 and Reverse: 5-[…]-3). 20 ng of cDNA was amplified using 900 nM primers and 250 nM probe in 1× TaqMan Fast Universal PCR Master Mix (Applied Biosystems, Carlsbad, Calif.). Reactions were run in triplicate on the Applied Biosystems 7500 Fast Real-Time PCR System using the universal cycling parameters (20 s 95° C., 40 cycles of 3 s 95° C., 30 s 60° C.). Parallel reactions were set up on the same plate analyzing β-Actin in each sample as an endogenous control. The threshold cycle of each gene was normalized against the threshold cycle of “housekeeping gene” […]. Normalized changes in gene expression with respect to the control were calculated using delta-delta threshold cycle method (Livak and Schmittgen, 2001).
GILZ was analyzed using qRT-PCR to validate the gene expression profiles obtained by microarray analysis. […] Parallel reactions were set up on the same plate analyzing β-Actin in each sample as an endogenous control.
(In qPCR the cycle at which signal appears reflects the starting amount.)

For assay [2], the system named is CHO cell line with CTLA4Ig secretion. Description: Shake flask culture of CHO cell line secreting CTLA4Ig: VCD and viability (Example 4). As for the experimental part:
The CHO cell line used in this study was originally subcloned from DG44 parental cells and cultured in a proprietary chemical-defined growth medium.
The experiments were carried out in 250-mL shake flasks (VWR international) with starting volumes of 100 mL and initial cell densities of 6×10^5 cells/mL. The cultures were placed on a shaker platform (VWR international) at 150 rpm and maintained at 37° C. and 6% CO2 for ten days. The cultures were sampled daily and the pH was adjusted as needed using 1M sodium carbonate and fed with glucose and glutamine every two days in order to maintain them at adequate levels. […] Cell density and viability were measured offline using a Cedex automated cell counter (Innovatis AG, Bielefeld, Germany). Culture pH and concentrations for glucose and glutamine were measured off-line using a Bioprofile Analyzer 400 (Nova Biomedical Corporation, Waltham, Mass.). Supernatants from culture harvests were collected for analysis of sialic acid content and HMW level.
Cell viability for the untreated cultures decreased rapidly after Day 6 (FIG. 16B) and percent viability on day 10 was only 64.5%.

For the compound `C[C@@H]1C[C@H]2[C@@H]3CCC4=CC(=O)C=C[C@]4(C)[C@@]3(F)[C@@H](O)C[C@]2(C)[C@@]1(O)C(=O)CO` [DEX, dexamethasone], in the assay on CHO cells, the “change of sialylated fraction between days 8 to 14” value is given as −7.7% and the “change of total sialic acid content between days 8 to 14” value is recorded as −7.8%. Moreover, in the assay on CHO cells (day 8), the “normalized N-linked sialylated species fraction” value turned out to be 97.7±0.9 and the “normalized total sialic acid content” value is 17.9±0.1. Further, in the assay with CHO cells (day 14), the “increase of N-linked sialylated species fraction vs control” value was 15.8%, the “increase of total sialic acid content vs control” value stood at 16.2%, the “normalized N-linked sialylated species fraction” value is on record as 90.2±1.3 and the “normalized total sialic acid content” value is recorded as 16.5±0.1. The “normalized expression profile change of GILZ (qRT-PCR)” value in assay [1] (day 5 samples) is listed as 7.66±1.08. Moreover, in assay [1] (day 8 samples), the “normalized expression profile change of GILZ (qRT-PCR)” value amounted to 10.48±2.16. In addition, the “final cell viability (day 10)” value in assay [2] (0.001 μM DEX added day 2) came to 75.5%. Moreover, in assay [2] (10 μM DEX added day 2), the “final cell viability (day 10)” value is 82.3%.

For the origin of these results see US10030064B2, “Mammalian cell culture processes for protein production” (priority 2009, dated 2018).
